How the values were obtained:
[1] = target: Poly [ADP-ribose] polymerase 2 (Homo sapiens, UniProt Q9UGN5); experiment: Inhibition of N-terminal his-tagged human PARP2 expressed in Escherichia coli Rosette2 (DE3)
[2] = target: Poly [ADP-ribose] polymerase 1 (Homo sapiens, UniProt P09874); experiment: Inhibition of N-terminal his-tagged human PARP1 expressed in Escherichia coli Rosette2 (DE3)
[3] = target: T1, Protein mono-ADP-ribosyltransferase PARP10 (Homo sapiens, UniProt Q53GL7); experiment: Inhibition of C-terminal his-tagged human PARP10 expressed in Escherichia coli Rosette2 (DE3)
T1 sequence (Q53GL7 whole entry): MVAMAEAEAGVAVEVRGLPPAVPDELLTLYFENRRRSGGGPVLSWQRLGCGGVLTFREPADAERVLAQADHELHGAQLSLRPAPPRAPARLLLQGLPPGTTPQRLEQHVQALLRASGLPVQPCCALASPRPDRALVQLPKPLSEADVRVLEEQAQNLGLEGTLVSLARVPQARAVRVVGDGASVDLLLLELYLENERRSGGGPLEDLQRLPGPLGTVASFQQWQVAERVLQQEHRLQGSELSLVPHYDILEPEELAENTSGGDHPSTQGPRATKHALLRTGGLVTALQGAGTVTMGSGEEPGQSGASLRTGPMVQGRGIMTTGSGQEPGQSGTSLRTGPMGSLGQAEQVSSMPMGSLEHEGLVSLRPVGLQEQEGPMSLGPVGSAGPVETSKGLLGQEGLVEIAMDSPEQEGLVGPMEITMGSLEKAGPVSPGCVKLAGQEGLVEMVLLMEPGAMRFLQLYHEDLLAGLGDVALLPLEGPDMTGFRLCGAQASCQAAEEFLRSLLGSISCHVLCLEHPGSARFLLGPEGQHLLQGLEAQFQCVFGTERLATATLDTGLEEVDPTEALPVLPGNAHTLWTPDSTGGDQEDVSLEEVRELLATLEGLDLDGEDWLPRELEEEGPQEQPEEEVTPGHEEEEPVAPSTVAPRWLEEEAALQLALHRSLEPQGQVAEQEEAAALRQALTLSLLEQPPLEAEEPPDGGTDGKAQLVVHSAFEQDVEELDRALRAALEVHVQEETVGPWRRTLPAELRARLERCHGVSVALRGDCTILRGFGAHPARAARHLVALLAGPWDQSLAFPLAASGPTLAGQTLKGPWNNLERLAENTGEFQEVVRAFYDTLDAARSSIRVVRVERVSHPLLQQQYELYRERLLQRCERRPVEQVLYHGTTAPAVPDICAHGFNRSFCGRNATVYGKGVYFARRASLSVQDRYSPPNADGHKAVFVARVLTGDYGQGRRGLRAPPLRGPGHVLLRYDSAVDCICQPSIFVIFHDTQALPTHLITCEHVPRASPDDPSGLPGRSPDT

[4] = target: T2, Poly [ADP-ribose] polymerase tankyrase-2 (Homo sapiens, UniProt Q9H2K2); experiment: Inhibition of N-terminal his-tagged human TNKS2 expressed in Escherichia coli Rosette2 (DE3)
T2 sequence (Q9H2K2 whole entry): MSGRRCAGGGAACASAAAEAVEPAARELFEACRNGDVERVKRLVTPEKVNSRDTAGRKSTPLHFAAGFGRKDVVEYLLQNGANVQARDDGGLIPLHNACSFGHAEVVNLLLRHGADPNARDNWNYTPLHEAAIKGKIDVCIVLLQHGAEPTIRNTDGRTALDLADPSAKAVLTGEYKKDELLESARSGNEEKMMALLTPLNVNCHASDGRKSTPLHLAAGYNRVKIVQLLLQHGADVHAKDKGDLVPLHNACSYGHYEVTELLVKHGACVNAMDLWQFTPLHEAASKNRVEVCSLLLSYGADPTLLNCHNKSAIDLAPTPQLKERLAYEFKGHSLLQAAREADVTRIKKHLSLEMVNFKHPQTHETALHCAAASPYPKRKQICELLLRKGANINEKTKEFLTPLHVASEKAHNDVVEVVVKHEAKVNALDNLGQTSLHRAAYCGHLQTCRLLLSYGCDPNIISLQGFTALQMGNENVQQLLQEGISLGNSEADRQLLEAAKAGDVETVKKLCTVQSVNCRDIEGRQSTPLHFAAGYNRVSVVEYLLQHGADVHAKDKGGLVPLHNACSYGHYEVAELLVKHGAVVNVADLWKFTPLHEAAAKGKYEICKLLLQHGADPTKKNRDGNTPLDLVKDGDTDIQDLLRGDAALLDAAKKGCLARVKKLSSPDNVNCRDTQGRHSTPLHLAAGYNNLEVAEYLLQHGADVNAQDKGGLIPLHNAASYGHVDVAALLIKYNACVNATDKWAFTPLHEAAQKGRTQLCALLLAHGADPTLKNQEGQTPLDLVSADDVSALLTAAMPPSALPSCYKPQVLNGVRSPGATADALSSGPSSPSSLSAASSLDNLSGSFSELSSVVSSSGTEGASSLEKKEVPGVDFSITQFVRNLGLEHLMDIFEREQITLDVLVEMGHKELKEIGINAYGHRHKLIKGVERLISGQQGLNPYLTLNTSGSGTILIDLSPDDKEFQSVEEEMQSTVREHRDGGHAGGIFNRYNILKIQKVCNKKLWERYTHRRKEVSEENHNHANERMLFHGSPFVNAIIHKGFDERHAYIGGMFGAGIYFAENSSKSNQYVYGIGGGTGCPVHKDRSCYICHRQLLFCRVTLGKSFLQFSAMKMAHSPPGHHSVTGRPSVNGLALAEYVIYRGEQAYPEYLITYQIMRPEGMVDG

[5] = target: Protein mono-ADP-ribosyltransferase PARP14 (Homo sapiens, UniProt Q460N5); experiment: Inhibition of N-terminal his-tagged human PARP14 expressed in Escherichia coli Rosette2 (DE3)
[6] = system: HeLa; experiment: Cytoprotective activity against human HeLa cells assessed as rescue of PARP10-induced cell death by measuring number of colonies treated for 8 to 10 days followed by compound replenishment for every 3 days by methylene blue staining based assay; format: functional

Chain of Poly [ADP-ribose] polymerase 1 (P09874 whole entry): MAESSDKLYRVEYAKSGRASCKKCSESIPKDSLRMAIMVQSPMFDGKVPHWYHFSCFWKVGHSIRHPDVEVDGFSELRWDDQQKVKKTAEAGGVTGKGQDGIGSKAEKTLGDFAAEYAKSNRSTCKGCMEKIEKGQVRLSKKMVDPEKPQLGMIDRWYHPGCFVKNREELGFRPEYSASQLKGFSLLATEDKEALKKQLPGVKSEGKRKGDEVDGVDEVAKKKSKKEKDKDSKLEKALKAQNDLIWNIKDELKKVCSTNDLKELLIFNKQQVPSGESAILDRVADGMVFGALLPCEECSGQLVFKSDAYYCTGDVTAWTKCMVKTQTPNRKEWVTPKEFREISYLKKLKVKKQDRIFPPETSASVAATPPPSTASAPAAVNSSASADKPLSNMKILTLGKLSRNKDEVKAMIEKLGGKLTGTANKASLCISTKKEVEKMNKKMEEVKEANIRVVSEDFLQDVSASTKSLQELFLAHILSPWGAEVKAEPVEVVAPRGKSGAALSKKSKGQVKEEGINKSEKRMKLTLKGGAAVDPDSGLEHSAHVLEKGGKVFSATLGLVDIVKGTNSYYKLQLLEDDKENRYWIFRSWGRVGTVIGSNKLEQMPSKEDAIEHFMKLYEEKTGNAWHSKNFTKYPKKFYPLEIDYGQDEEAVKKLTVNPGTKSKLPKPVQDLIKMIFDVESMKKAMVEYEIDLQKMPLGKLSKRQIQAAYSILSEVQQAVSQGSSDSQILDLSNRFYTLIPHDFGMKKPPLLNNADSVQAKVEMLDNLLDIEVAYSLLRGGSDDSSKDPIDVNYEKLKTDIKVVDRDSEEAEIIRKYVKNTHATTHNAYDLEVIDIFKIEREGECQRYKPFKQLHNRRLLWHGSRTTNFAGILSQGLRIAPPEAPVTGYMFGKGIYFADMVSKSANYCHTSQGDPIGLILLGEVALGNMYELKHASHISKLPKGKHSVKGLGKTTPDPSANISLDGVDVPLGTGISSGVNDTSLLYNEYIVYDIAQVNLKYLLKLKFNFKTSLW
Chain of Protein mono-ADP-ribosyltransferase PARP14 (Q460N5 whole entry): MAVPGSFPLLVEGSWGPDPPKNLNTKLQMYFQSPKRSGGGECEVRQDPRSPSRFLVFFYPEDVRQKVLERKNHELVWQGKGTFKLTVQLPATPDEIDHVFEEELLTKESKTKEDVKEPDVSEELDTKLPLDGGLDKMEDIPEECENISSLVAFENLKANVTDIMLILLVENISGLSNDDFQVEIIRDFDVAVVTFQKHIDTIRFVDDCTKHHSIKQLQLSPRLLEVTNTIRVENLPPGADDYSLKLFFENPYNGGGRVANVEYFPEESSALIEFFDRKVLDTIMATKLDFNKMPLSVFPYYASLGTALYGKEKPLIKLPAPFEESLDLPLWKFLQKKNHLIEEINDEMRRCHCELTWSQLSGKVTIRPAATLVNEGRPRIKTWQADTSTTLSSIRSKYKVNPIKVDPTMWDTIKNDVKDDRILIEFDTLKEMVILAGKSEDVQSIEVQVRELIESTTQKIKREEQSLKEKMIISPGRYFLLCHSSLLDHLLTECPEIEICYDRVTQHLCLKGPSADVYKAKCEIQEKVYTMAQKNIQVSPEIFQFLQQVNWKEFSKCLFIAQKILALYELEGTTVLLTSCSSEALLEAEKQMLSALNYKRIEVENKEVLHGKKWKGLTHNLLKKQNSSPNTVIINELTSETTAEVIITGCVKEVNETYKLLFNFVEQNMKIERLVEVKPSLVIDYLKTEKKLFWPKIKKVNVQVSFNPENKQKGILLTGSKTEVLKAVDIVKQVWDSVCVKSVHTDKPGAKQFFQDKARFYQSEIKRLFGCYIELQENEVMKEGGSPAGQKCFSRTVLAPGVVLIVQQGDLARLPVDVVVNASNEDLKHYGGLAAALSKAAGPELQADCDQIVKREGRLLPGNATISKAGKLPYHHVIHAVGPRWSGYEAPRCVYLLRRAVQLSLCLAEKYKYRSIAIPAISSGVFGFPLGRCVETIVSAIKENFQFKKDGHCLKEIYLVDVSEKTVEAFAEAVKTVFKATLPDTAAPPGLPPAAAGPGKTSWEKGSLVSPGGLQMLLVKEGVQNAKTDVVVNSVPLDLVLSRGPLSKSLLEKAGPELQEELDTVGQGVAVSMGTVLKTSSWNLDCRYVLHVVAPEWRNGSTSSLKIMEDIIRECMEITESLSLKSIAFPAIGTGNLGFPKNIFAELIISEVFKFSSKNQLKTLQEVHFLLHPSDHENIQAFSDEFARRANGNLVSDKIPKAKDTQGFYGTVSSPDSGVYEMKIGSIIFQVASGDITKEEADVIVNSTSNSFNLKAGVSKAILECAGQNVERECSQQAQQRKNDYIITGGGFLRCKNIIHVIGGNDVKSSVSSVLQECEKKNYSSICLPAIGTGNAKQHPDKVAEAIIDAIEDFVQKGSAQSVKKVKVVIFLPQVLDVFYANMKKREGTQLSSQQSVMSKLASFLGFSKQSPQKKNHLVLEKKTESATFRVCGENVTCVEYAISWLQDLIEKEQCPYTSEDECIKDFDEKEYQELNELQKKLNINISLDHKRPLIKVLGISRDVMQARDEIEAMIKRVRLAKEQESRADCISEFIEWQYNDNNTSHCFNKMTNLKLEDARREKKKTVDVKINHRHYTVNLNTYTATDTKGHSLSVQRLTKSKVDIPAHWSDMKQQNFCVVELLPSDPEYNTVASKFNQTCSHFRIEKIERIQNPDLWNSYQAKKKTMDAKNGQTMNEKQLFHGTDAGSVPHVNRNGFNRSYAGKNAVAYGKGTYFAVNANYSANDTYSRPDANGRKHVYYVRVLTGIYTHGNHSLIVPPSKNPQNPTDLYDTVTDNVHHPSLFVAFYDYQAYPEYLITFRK
Chain of Poly [ADP-ribose] polymerase 2 (Q9UGN5 whole entry): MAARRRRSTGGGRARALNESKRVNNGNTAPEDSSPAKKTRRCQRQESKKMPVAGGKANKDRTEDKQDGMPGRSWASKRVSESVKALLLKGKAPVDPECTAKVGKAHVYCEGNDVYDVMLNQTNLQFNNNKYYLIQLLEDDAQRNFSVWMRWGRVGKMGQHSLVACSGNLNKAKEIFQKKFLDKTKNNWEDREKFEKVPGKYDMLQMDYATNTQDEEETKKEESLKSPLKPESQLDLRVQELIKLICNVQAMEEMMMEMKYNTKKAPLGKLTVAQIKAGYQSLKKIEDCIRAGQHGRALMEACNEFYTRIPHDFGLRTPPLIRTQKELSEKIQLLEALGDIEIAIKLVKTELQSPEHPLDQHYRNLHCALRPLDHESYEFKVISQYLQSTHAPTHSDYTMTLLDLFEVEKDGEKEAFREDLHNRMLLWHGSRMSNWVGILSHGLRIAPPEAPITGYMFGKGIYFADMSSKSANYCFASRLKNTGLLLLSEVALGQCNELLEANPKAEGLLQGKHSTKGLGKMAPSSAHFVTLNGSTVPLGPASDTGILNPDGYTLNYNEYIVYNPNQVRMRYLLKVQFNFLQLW

Row | Structure (SMILES) | IC50 [1] [µM] | IC50 [2] [µM] | IC50 [3] [µM] | IC50 [4] [µM] | IC50 [5] [µM] | IC50 [6] [µM]
1 | NC(=O)c1ccc(Oc2cccc(C(N)=O)c2)cc1 | 1.7 | > 100 | 0.48 | 6.5 | 41 | 1.8
2 | N#Cc1ccc(Oc2ccc(C(N)=O)cc2)cc1 | 27 | > 100 | 3.64 | > 100 | > 100 | 1.7

Reference: ChEMBL document CHEMBL5120882, “Medicinal Chemistry Perspective on Targeting Mono-ADP-Ribosylating PARPs with Small Molecules” (J Med Chem, 2022)
